Test results: ChEMBL document CHEMBL1201862, “PubChem BioAssay data set” (2004)
Each block holds one compound with its values, some of them ahead of it. Activity calls are given as the source filed them.

Key:
[1] = biological target: Genome polyprotein (Hepatitis C virus, UniProt Q2Q167); test: HCV core protein dimerization inhibitors, dose response, biochemical, TR-FRET (AID 2159); set-up: species or system Hepacivirus hominis;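 also: blocks dimerization of HCV core protein measured by TR-FRET between tagged core106 pairs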
[2] = biological target: T1, RNA-binding protein pos-1 (Caenorhabditis elegans, UniProt G5EF15); test: inhibitors of POS-1/mex-3 RNA binding, dose response, biochemical, fluorescence polarization (AID 1964);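 also: purified POS-1 fused to maltose binding protein made in E. coli; potency of compounds blocking POS-1 binding to fluorescent RNA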
T1 sequence (G5EF15 whole entry): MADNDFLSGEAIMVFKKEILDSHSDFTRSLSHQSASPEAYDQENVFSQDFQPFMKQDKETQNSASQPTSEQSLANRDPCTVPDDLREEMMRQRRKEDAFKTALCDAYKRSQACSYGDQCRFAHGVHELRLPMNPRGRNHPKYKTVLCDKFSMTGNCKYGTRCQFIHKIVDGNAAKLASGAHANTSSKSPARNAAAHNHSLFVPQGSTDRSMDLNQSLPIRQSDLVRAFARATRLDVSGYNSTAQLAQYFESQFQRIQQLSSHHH

[3] = biological target: T2, Zinc finger protein mex-5 (Caenorhabditis elegans, UniProt Q9XUB2); test: MEX-5/TCR-2 RNA interaction inhibitors, dose response, biochemical, C. elegans, fluorescence polarization (AID 1960)
T2 sequence (Q9XUB2 whole entry): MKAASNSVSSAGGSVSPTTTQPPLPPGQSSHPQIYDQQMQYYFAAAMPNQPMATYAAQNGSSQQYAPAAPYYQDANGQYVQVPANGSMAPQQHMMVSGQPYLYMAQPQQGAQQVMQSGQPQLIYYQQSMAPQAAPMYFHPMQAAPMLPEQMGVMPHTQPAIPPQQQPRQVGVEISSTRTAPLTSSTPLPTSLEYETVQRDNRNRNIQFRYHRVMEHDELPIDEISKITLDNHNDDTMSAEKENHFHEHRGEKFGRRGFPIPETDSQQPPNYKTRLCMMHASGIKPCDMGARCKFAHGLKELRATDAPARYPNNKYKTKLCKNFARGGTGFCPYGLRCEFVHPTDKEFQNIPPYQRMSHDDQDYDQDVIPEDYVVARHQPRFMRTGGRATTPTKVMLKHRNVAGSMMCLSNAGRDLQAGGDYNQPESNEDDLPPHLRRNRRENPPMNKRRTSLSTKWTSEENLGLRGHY

[4] = TRPM1 promoter luciferase reporter signal decrease, dose response, MITF inhibitor project, cell-based, SK-MEL-5, dry powder, set 8 (AID 624430); type: functional
[5] = TRPM1 promoter luciferase reporter signal decrease, dose response, MITF inhibitor project, cell-based, SK-MEL-5, dry powder, set 9 (AID 651588); type: functional
[6] = MITF Orthogonal Assay: MALME3 CTG Assay Measured in Cell-Based System Using Plate Reader - 2084-04_Inhibitor_Dose_DryPowder_Activity_Set6.; type: functional; settings: MALME-3
[7] = MITF: Counter assay: A375 proliferation Measured in Cell-Based System Using Plate Reader - 2084-03_Inhibitor_Dose_DryPowder_Activity_Set8.; type: functional; settings: A-375
[8] = SK-MEL-5 parental cell viability reduction, dose response, orthogonal assay for MITF inhibitor project, CellTiter-Glo luminescence, dry powder, set 8 (AID 651586); type: functional, cell-based
[9] = MALME3 melanoma cell viability reduction, dose response, orthogonal assay for MITF inhibitor project, CellTiter-Glo luminescence, dry powder, set 5 (AID 651584); type: functional, cell-based; settings: MALME-3
[10] = MITF Orthogonal Assay: SK-MEL-5 CTG Assay Measured in Cell-Based System Using Plate Reader - 2084-02_Inhibitor_Dose_DryPowder_Activity_Set7.; type: functional
[11] = SNU-C1 cell viability reduction, dose response, CellTiter-Glo luminescence (AID 1117323); type: functional, cell-based
[12] = Concentration-dependent survival of SW480 colon cancer line, luminescence detection with CellTiter-Glo, half-maximal inhibitory concentration (AID 1117338); type: functional
[13] = HeLa 4N DNA content increase, dose response, cell-based, IC50 (AID 1117351); type: functional
[14] = CellTiter-Glo luminescent dose response of DLD-1 viability loss (AID 1117352); type: functional
[15] = cytotoxicity toward Colo320 cells – cell-based, CellTiter-Glo luminescence, IC50, dose response (AID 1117334); type: functional; settings: COLO 320
[16] = HCT116 cell viability decrease, GSK3B pretreatment – CellTiter-Glo, IC50, dose response (AID 1117339); type: functional; settings: HCT-116
[17] = cytotoxicity toward HT-29 cells – cell-based, CellTiter-Glo luminescence, IC50, dose response (AID 1117330); type: functional
[18] = cytotoxicity toward HCT116 cells – cell-based, CellTiter-Glo luminescence, IC50, dose response (AID 1117332); type: functional; settings: HCT-116
[19] = HeLa 2N DNA content increase, dose response, cell-based, IC50 (AID 1117349); type: functional
[20] = RKO cell viability reduction, dose response, CellTiter-Glo luminescence (AID 1117322); type: functional
[21] = Late stage results for the probe development effort to identify inhibitors of Plasmodium falciparum gametocytes: Luminescence-based cell-based high throughput dose response assay to identify inhibitors of viability of late stage Plasmodium falciparum gametocytes.; type: functional
[22] = P. falciparum Dd2 growth inhibitors, dose response, SYBR Green, dry powder samples (AID 1159566); type: functional, cell-based;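 also: potency for growth inhibition with lower SYBR green DNA signal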
[23] = P. falciparum 3D7-ScDHODH growth inhibitors, dose response, SYBR Green, dry powder samples (AID 1159570); type: functional, cell-based;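 also: parasite growth measured after 72 hours of compound exposure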
[24] = HepG2 cell cytotoxicity, dose response, cytotoxicity control, plate reader, dry powder samples (AID 1159569); type: functional, cell-based;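 also: inhibitor potency with signal falling toward the positive control level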
[25] = P. falciparum ATP4 D1247Y mutant growth inhibitors, dose response, NITD609-resistant line, SYBR Green, dry powder (AID 1159571); type: functional, cell-based;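 also: parasites synchronized at ring stage by sorbitol before testing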
[26] = P. falciparum Dd2 growth inhibitors, dose response, SYBR Green, cherry-picked samples (AID 1159567); type: functional, cell-based
[27] = biological target: T3, Low molecular weight phosphotyrosine protein phosphatase (Homo sapiens, UniProt P24666); test: LMPTP phosphatase inhibitors, dose response, biochemical, OMFP substrate, fluorescence intensity, set 2 (AID 743307); type: functional
T3 sequence (P24666 whole entry): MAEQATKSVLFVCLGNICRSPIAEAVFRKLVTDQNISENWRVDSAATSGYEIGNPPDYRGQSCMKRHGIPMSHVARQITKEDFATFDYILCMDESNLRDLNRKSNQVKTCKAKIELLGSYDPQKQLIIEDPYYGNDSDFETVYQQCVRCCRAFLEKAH

[28] = biological target: T3, Low molecular weight phosphotyrosine protein phosphatase; test: LMPTP phosphatase inhibitors, colorimetric pNPP readout, dose response, orthogonal assay, biochemical, absorbance, pNPP substrate, LMPTP-A isoform, set 2 (AID 743308); type: functional

Sequence of Genome polyprotein (Q2Q167 whole entry, the tested form may be a part): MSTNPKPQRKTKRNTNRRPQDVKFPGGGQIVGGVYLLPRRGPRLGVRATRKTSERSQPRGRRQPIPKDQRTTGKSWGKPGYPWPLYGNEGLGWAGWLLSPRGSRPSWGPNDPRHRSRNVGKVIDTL

Compound: O=C1CSC(=S)N1/N=C/c1ccc(Cl)c([N+](=O)[O-])c1
IC50 [1]: > 49.8 µM (not active)
EC50 [2]: 18.6 µM (active)
EC50 [3]: 15.7 µM (active)

Compound: CC(C)N1CCN(C2=C(Nc3ccc(F)cc3F)C(=O)c3ccccc3C2=O)CC1
AC50 [4]: 2.16 µM (active)
AC50 [5]: 9.91 µM (active)
AC50 [6]: 25.4 µM (active)
AC50 [7]: > 70 µM (inactive)
AC50 [8]: 59.1 µM (active)
AC50 [9]: 25.4 µM (active)
AC50 [10]: 8.73 µM (active)

Compound: Cc1cc(N)c2ccccc2[n+]1CCCCCCCCCC[n+]1c(C)cc(N)c2ccccc21
IC50 [11]: 1.29 µM (active)
IC50 [12]: 3.83 µM (active)
IC50 [13]: > 10 µM (inactive)
IC50 [14]: 5.72 µM (inactive)
IC50 [15]: 15.9 µM (inactive)
IC50 [16]: > 20 µM (inactive)
IC50 [17]: > 20 µM (inactive)
IC50 [18]: > 20 µM (inactive)
IC50 [19]: > 10 µM (inactive)
IC50 [20]: 2.45 µM (active)

Compound: Cc1cccc(-c2nn(-c3ccccc3)cc2C(=O)Nc2nccs2)c1
IC50 [21]: > 74.4 µM (inactive)

Compound: OC[C@@H]1[C@@H](c2ccccc2)C2(CN(CCC(F)(F)F)C2)N1Cc1ccccc1
AC50 [22]: 2.48 µM (active)
AC50 [23]: 2.89 µM (active)
AC50 [24]: 69.1 µM (active)
AC50 [25]: 2.36 µM (active)
AC50 [26]: 2.27 µM (active)

IC50 [27]: 2.66 µM (active)
IC50 [28]: 6.94 µM (active)
Compound: FC(F)(F)c1cccc(-c2cc(NCCCN3CCCCC3)c3ccccc3n2)c1
